Results published in US20240239799A1, “(S)-1-(5-((PYRIDIN-3-YL)THIO)PYRAZIN-2-YL)-4'H,6'H-SPIRO[PIPERIDINE-4,5'-PYRROLO [1,2-B]PYRAZOL]-4'-AMINE DERIVATIVES AND SIMILAR COMPOUNDS AS SHP2 INHIBITORS FOR THE TREATMENT OF E.G. CANCER” (C.N.C.C.S. S.C.A.R.L. COLLEZIONE NAZIONALE DEI COMPOSTI …, priority 2021, published 2024).
Where two headings read alike, the source gives them in different places.

How the values were obtained:
[1] = biological target: T1, SHP-2 enzyme (Met1-Leu525) (Homo sapiens, UniProt Q06124); assay: SHP2 inhibition enzymatic assay (DiFMUP substrate, IRS1 peptide activation); format: biochemical; conditions: 0.5 nM SHP-2, 500 nM IRS1 peptide, 75 μM DiFMUP; read-out: SHP2wt - IC50
T1 construct: synthetized by Origene, Met1-Leu525, cat #TP750155; purchased Origene TP750155
T1 sequence (Q06124 1-525): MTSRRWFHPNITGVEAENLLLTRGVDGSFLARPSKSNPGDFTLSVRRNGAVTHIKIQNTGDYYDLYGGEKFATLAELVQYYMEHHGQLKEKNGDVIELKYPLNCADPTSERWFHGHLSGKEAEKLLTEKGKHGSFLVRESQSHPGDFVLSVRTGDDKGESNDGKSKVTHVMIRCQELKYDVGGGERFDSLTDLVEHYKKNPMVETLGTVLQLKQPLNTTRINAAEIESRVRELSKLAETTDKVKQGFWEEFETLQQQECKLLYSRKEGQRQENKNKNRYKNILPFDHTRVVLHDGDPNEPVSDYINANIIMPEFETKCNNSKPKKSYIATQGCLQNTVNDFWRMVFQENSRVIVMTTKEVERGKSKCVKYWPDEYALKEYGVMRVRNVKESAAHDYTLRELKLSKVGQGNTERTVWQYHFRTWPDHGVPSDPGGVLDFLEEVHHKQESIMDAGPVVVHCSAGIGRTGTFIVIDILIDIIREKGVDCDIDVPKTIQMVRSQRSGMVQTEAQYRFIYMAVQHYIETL
Procedure: Assay volume of 20 μL/well was assembled in 384 well black polystyrene low-binding microplates (Greiner), using the following buffer: 60 mM HEPES pH 7.2, 75 mM NaCl, 75 mM KCl, 1 mM EDTA pH 8, 0.05% tween-20, 5 mM DTT. The SHP-2 enzyme (synthetized by Origene, Met1-Leu525, cat #TP750155) was used at a final concentration of 0.5 nM.
Briefly, DMSO serially diluted testing compounds were transferred to the bottom of the assay plate. SHP2 was then added together with the IRS1 peptide 30 min post incubation, the DiFMUP substrate was added to the reaction and incubated 30 min at rt. […] The fluorescence was detected by a microplate reader (Envision, PerkinElmer) according to the DiFMUP excitation and emission wavelength. The lower the fluorescence the higher the SHP2 inhibition.
The percentage inhibition is fitted against the compound dilutions with a four-parameter logistic regression. The inflection point (i.e. the concentration at which half-maximal inhibition is achieved) is the IC50.

[2] = test system: phospho-ERK1/2 (Thr202/Tyr204) in KYSE-520 cells; assay: Phospho-ERK cellular assay (TR-FRET); format: cell-based; conditions: Homo sapiens, KYSE-520 cells, 2 h at 37° C., read-out: pERK IC50
Procedure: ERK phosphorylation was detected using the “Advanced phospho-ERK1/2 (Thr202/Tyr204)” TR-FRET kit (Cisbio, Cat #64AERPEG/H), following the manufacturer reagents and instructions.
Briefly, 20.000/well KYSE-520 cells (DSMZ ACC 371) were plated in 6 μL RPMI-1640 (Invitrogen) growth medium, into 384 white low-volume high base TC microplates (Greiner). After an overnight incubation, cells were treated with DMSO serial diluted compounds and incubated for 2 h at 37° C. After incubation, 2 μL/well of 4X Lysis Buffer (Cisbio 64KL1FDF), were added and incubated with cells for 30 min on gentle shaking. Finally, lysates were added with 2 μL/well of Eu cryptate (donor) and D2 (acceptor) conjugated antibodies (as provided by the Cisbio kit #64AERPEG/H) diluted 1:100 in Detection Buffer (as provided by the Cisbio kit #64AERPEG/H). Plates were then sealed and incubated at rt in the dark. After an overnight incubation, the TR-FRET signal was detected on a suitable reader (Envision, PerkinElmer). The lower the TR-FRET signal the higher the higher the SHP2 inhibition in cells.
The activity of each compound dilution was calculated as percentage between vehicle DMSO treated cells and no cells, 0% inhibition and 100% inhibition respectively. The percentage activity is fitted against the compound dilutions with a four-parameter logistic regression. The inflection point (i.e. the concentration at which half-maximal inhibition is achieved) is the IC50.

Row | SMILES | IC50 [1] | IC50 ([2]; KYSE-520, 2 h) | IC50 [2]
1 | N[C@@H]1c2ccnn2CC12CCN(c1cnc(SC3=C(Cl)C4=NC(=O)CN4C=C3)cn1)CC2 [Example 58, (S)-7-((5-(4′-amino-4′H,6′H-spiro[piperidine-4,5′-pyrrolo[1,2-b]pyrazol]-1-yl)pyrazin-2-yl)thio)-8-chloroimidazo[1,2-a]pyridin-2(3H)-one] | ≤ 50 nM |  | 100 to 500 nM
2 | NC(=O)c1cnn(-c2nccc(Sc3cnc(N4CCC5(CC4)Cn4nccc4[C@H]5N)cn3)c2Cl)c1 [Example 65, (S)-1-(4-((5-(4′-amino-4′H,6′H-spiro[piperidine-4,5′-pyrrolo[1,2-b]pyrazol]-1-yl)pyrazin-2-yl)thio)-3-chloropyridin-2-yl)-1H-pyrazole-4-carboxamide] | ≤ 50 nM | < 100 nM | 
3 | NC(=O)c1ccn(-c2nccc(Sc3cnc(N4CCC5(CC4)Cn4nccc4[C@H]5N)cn3)c2Cl)c1 [Example 66, (S)-1-(4-((5-(4′-amino-4′H,6′H-spiro[piperidine-4,5′-pyrrolo[1,2-b]pyrazol]-1-yl)pyrazin-2-yl)thio)-3-chloropyridin-2-yl)-1H-pyrrole-3-carboxamide] | ≤ 50 nM | < 100 nM | 
4 | CNC(=O)c1ccn(-c2nccc(Sc3cnc(N4CCC5(CC4)Cn4nccc4[C@H]5N)cn3)c2Cl)c1 [Example 67, (S)-1-(4-((5-(4′-amino-4′H,6′H-spiro[piperidine-4,5′-pyrrolo[1,2-b]pyrazol]-1-yl)pyrazin-2-yl)thio)-3-chloropyridin-2-yl)-N-methyl-1H-pyrrole-3-carboxamide] | ≤ 50 nM | < 100 nM | 
5 | CN(C)C(=O)c1cn2ccc(Sc3cnc(N4CCC5(CC4)Cn4nccc4[C@H]5N)cn3)c(Cl)c2n1 [Example 68, (S)-7-((5-(4′-amino-4′H,6′H-spiro[piperidine-4,5′-pyrrolo[1,2-b]pyrazol]-1-yl)pyrazin-2-yl)thio)-8-chloro-N,N-dimethylimidazo[1,2-a]pyridine-2-carboxamide] | ≤ 50 nM | < 100 nM | 
6 | CN(C)C(=O)c1cnn(-c2nccc(Sc3cnc(N4CCC5(CC4)Cn4nccc4[C@H]5N)cn3)c2Cl)c1 [Example 69, (S)-1-(4-((5-(4′-amino-4′H,6′H-spiro[piperidine-4,5′-pyrrolo[1,2-b]pyrazol]-1-yl)pyrazin-2-yl)thio)-3-chloropyridin-2-yl)-N,N-dimethyl-1H-pyrazole-4-carboxamide] | ≤ 50 nM | < 100 nM | 
7 | Cn1cc2c(Cl)c(-c3n[nH]c4nc(N5CCC6(CC5)Cn5nccc5[C@H]6N)cnc34)ccc2n1 [Example 70, (S)-1-(3-(4-chloro-2-methyl-2H-indazol-5-yl)-1H-pyrazolo[3,4-b]pyrazin-6-yl)-4′H,6′H-spiro[piperidine-4,5′-pyrrolo[1,2-b]pyrazol]-4′-amine] | ≤ 50 nM | < 100 nM | 
8 | N[C@@H]1c2ccnn2CC12CCN(c1cnc3c(-c4ccnc(-n5cccn5)c4Cl)n[nH]c3n1)CC2 [Example 71, (S)-1-(3-(3-chloro-2-(1H-pyrazol-1-yl)pyridin-4-yl)-1H-pyrazolo[3,4-b]pyrazin-6-yl)-4′H,6′H-spiro[piperidine-4,5′-pyrrolo[1,2-b]pyrazol]-4′-amine] | ≤ 50 nM | 100 to 500 nM | 
9 | N[C@@H]1c2ccnn2CC12CCN(c1cnc3nc(Sc4ccnc(-n5cccn5)c4Cl)ccc3n1)CC2 [Example 72, (S)-1-(6-((3-chloro-2-(1H-pyrazol-1-yl)pyridin-4-yl)thio)pyrido[2,3-b]pyrazin-2-yl)-4′H,6′H-spiro[piperidine-4,5′-pyrrolo[1,2-b]pyrazol]-4′-amine] | ≤ 50 nM | 100 to 500 nM | 
10 | Nc1nccc(Sc2ccc3nc(N4CCC5(CC4)Cn4nccc4[C@H]5N)cnc3n2)c1Cl [Example 73, (S)-1-(6-((2-amino-3-chloropyridin-4-yl)thio)pyrido[2,3-b]pyrazin-2-yl)-4′H,6′H-spiro[piperidine-4,5′-pyrrolo[1,2-b]pyrazol]-4′-amine] | ≤ 50 nM | < 100 nM | 
11 | Cn1c(N2CCC3(CC2)Cn2nccc2[C@H]3N)nc2nc(Sc3ccnc(N)c3Cl)cnc21 [Example 74, (S)-1-(5-((2-amino-3-chloropyridin-4-yl)thio)-1-methyl-1H-imidazo[4,5-b]pyrazin-2-yl)-4′H,6′H-spiro[piperidine-4,5′-pyrrolo[1,2-b]pyrazol]-4′-amine] | 50 to 300 nM | > 500 nM | 
12 | N[C@@H]1c2ccnn2CC12CCN(c1cnc(Sc3ccnc(-n4cccn4)c3Cl)c3cncn13)CC2 [Example 75, (S)-1-(8-((3-chloro-2-(1H-pyrazol-1-yl)pyridin-4-yl)thio)imidazo[1,5-a]pyrazin-5-yl)-4′H,6′H-spiro[piperidine-4,5′-pyrrolo[1,2-b]pyrazol]-4′-amine] | ≤ 50 nM | 100 to 500 nM | 

Continued, in another order:

Row | IC50 [1] | IC50 ([2]; KYSE-520, 2 h) | SMILES | IC50 [2]
13 | ≤ 50 nM | < 100 nM | N#Cc1cn2ccc(Sc3cnc(N4CCC5(CC4)Cn4nccc4[C@H]5N)cn3)c(Cl)c2n1 [Example 57, (S)-7-((5-(4′-amino-4′H,6′H-spiro[piperidine-4,5′-pyrrolo[1,2-b]pyrazol]-1-yl)pyrazin-2-yl)thio)-8-chloroimidazo[1,2-a]pyridine-2-carbonitrile] | 
14 | ≤ 50 nM | < 100 nM | N[C@@H]1c2ccnn2CC12CCN(c1cnc(Sc3ccnc(-n4ccnc4)c3Cl)cn1)CC2 [Example 59, (S)-1-(5-((3-chloro-2-(1H-imidazol-1-yl)pyridin-4-yl)thio)pyrazin-2-yl)-4′H,6′H-spiro[piperidine-4,5′-pyrrolo[1,2-b]pyrazol]-4′-amine] | 
15 | ≤ 50 nM | < 100 nM | Nc1nc(N2CCC3(CC2)Cn2nccc2[C@H]3N)cnc1Sc1ccnc(-n2cccn2)c1Cl [Example 60, (S)-1-(6-amino-5-((3-chloro-2-(1H-pyrazol-1-yl)pyridin-4-yl)thio)pyrazin-2-yl)-4′H,6′H-spiro[piperidine-4,5′-pyrrolo[1,2-b]pyrazol]-4′-amine] | 
16 | ≤ 50 nM | < 100 nM | N[C@@H]1c2ccnn2CC12CCN(c1cnc(Sc3ccnc(-n4cc(F)cn4)c3Cl)cn1)CC2 [Example 61, (S)-1-(5-((3-chloro-2-(4-fluoro-1H-pyrazol-1-yl)pyridin-4-yl)thio)pyrazin-2-yl)-4′H,6′H-spiro[piperidine-4,5′-pyrrolo[1,2-b]pyrazol]-4′-amine] | 
17 | ≤ 50 nM | < 100 nM | N[C@@H]1c2ccnn2CC12CCN(c1cnc(Sc3ccnc(-n4cccc4)c3Cl)cn1)CC2 [Example 62, (S)-1-(5-((3-chloro-2-(1H-pyrrol-1-yl)pyridin-4-yl)thio)pyrazin-2-yl)-4′H,6′H-spiro[piperidine-4,5′-pyrrolo[1,2-b]pyrazol]-4′-amine] | 
18 | ≤ 50 nM | < 100 nM | Nc1nc(N2CCC3(CC2)Cn2nccc2[C@H]3N)cnc1Sc1ccnc(-n2ccnc2)c1Cl [Example 63, (S)-1-(6-amino-5-((3-chloro-2-(1H-imidazol-1-yl)pyridin-4-yl)thio)pyrazin-2-yl)-4′H,6′H-spiro[piperidine-4,5′-pyrrolo[1,2-b]pyrazol]-4′-amine] | 
19 | ≤ 50 nM | < 100 nM | Cc1cn2ccc(Sc3ncc(N4CCC5(CC4)Cn4nccc4[C@H]5N)nc3N)c(Cl)c2n1 [Example 64, (S)-1-(6-amino-5-((8-chloro-2-methylimidazo[1,2-a]pyridin-7-yl)thio)pyrazin-2-yl)-4′H,6′H-spiro[piperidine-4,5′-pyrrolo[1,2-b]pyrazol]-4′-amine] | 
